According to US4420643A, “Extraction of phenols from aqueous solutions” (priority 1982, dated 1983):

How the values were obtained:
[1] = Extraction of phenol from 1% aqueous solution with high boiling solvents alone and with TOPO (Example 3, Table III); type: physicochemical; settings: 24° C., 10 minutes
Experimental: A number of high boiling solvents, which would allow recovery of the extracted phenol without the necessity of distilling the solvent, were evaluted and the distribution coefficient calculated for the solvent alone and containing 133 g/l of TOPO. The aqueous solution extracted contained 1% phenol, which was contacted with the solvent or solvent plus TOPO for 10 minutes at 24° C.

[2] = Concentration of TOPO obtainable in the extraction solution; type: physicochemical
From the text: It is advantageous in solvent extraction to maximize the loading of the extracted compound in the organic phase. This also permits a higher ratio of aqueous phase to organic phase (A/O) in the extraction process, that is, a greater volume of aqueous solution treated per volume of organic extractant. It is therefore desirable to maximize the concentration of phosphine oxide in the extraction solution. With TOPO, solutions containing in excess of 30% by weight are readily obtained.

[3] = Water solubility of the solvents
[4] = solvent + TOPO 133 g/l (head: TOPA), A/O = 0.5
[5] = solvent + TOPO 133 g/l, A/O = 1

Compound | C aq. Final (phenol) [1, 4] | C aq. Final (phenol) [1, 5] | C aq. Final (phenol) ([1]; solvent alone, A/O = 1) | TOPO concentration of solutions readily obtained [2] | water solubility [3]
O=C(c1ccccc1)c1ccccc1 [Benzophenone] | 37 ppm | 85 ppm | – | – | –
CC(C)CC(=O)CC(C)C [DIBK, diisobutylketone, reference compound] | 26 ppm | 60 ppm | 285 ppm | – | –
CC(C)OC(C)C [Diisopropyl ether, diisopropyl ether, reference compound] | – | – | 419 ppm | – | –
c1ccc(Oc2ccccc2)cc1 [Diphenyl ether] | 23 ppm | 55 ppm | 3075 ppm | – | –
c1ccc(Cc2ccccc2)cc1 [Diphenyl methane] | 21 ppm | 59 ppm | – | – | –
CC(=O)CC(C)C [Methyl isobutyl ketone, reference compound] | 24 ppm | 43 ppm | 130 ppm | – | –
CCCCCCCCP(=O)(CCCCCCCC)CCCCCCCC [TOPO, tri-n-octylphosphine oxide] | – | – | – | > 30 % by weight | –
CCCCCCCCCCCCCO [Tridecanol] | 128 ppm | 515 ppm | 531 ppm | – | –
Diisopropyl naphthalene | 18 ppm | 46 ppm | 5590 ppm | – | negligible water solubility
Isopropyl naphthalene | 18 ppm | 45 ppm | 4690 ppm | – | negligible water solubility
